Laboratory results as given in ChEMBL document CHEMBL3991601, “The target landscape of clinical kinase drugs” (Science, 2017).
Calls of active or inactive are those of the source. On the calls: in the data inactive means no Kd found up to 30 µM.

Legend:
[1] = molecular target: T1, Very long-chain specific acyl-CoA dehydrogenase, mitochondrial (Homo sapiens, UniProt P49748)
T1 sequence (P49748 whole entry): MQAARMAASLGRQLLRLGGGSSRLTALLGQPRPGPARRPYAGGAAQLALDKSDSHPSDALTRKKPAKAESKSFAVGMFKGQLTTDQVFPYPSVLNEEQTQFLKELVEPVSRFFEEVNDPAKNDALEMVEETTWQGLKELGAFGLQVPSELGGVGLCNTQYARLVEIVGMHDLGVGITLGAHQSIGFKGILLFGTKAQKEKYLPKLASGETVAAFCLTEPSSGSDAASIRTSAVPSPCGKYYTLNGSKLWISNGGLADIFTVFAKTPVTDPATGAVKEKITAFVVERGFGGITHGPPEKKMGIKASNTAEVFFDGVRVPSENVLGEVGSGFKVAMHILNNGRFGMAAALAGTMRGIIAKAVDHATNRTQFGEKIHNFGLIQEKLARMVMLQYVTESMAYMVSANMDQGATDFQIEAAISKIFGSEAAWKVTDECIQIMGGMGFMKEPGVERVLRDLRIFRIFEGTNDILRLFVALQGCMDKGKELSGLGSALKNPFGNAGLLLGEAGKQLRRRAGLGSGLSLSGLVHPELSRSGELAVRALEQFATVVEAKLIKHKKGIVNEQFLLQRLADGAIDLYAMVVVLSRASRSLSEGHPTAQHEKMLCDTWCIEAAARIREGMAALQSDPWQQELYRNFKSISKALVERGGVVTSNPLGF

[2] = molecular target: T2, Cysteine--tRNA ligase, cytoplasmic (Homo sapiens, UniProt P49589)
T2 sequence (P49589 whole entry): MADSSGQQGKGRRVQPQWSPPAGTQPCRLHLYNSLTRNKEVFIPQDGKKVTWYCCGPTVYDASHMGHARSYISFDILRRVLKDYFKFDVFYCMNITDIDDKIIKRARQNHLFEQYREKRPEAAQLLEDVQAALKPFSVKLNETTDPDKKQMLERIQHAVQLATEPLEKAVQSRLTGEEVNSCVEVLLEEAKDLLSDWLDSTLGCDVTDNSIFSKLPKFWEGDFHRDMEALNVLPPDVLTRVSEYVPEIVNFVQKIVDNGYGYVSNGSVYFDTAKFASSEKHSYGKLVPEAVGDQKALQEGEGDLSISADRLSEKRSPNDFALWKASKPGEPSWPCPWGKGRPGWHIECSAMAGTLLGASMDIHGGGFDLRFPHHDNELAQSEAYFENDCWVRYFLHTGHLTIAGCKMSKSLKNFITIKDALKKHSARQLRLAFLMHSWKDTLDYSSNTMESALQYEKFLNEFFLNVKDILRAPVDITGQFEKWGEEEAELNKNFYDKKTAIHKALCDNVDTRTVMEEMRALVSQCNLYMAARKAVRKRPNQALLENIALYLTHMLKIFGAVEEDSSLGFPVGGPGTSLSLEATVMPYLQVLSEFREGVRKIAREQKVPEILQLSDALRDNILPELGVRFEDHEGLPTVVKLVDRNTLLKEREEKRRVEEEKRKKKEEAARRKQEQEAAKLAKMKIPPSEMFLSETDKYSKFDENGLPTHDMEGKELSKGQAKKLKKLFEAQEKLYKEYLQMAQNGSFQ

[3] = molecular target: T3, ATP-dependent 6-phosphofructokinase, platelet type (Homo sapiens, UniProt Q01813)
T3 sequence (Q01813 whole entry): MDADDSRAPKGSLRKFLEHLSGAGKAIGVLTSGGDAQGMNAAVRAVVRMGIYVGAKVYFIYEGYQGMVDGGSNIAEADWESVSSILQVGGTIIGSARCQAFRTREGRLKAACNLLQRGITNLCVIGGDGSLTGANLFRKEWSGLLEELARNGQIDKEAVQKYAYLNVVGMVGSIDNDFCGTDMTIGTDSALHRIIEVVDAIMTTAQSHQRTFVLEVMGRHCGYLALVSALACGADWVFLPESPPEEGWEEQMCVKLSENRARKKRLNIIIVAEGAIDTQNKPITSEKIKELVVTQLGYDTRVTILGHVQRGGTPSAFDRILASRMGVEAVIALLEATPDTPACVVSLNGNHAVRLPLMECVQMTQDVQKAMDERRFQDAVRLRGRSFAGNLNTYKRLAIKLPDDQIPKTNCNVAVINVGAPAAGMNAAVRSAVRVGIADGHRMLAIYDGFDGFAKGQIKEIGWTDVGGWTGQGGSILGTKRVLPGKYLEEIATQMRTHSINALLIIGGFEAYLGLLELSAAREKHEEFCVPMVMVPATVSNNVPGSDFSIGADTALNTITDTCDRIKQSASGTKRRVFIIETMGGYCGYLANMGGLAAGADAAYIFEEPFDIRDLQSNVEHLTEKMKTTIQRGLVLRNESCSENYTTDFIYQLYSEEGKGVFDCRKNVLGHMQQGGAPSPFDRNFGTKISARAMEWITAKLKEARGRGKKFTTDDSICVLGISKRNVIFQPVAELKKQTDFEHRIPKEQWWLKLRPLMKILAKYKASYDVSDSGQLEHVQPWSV

GTP-binding protein 4 = GTP-binding protein 4 (Homo sapiens, UniProt Q9BZE4)
[4] = molecular target: T4, Ras-related protein Rab-27A (Homo sapiens, UniProt P51159)
T4 sequence (P51159 whole entry): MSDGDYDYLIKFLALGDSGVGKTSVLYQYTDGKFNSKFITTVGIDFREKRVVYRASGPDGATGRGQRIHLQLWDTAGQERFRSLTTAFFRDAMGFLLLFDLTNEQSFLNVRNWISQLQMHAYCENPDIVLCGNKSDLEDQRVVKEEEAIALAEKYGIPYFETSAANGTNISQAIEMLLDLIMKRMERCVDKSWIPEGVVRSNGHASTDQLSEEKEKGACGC

Kd [1]	Kd [2]	Kd [3]	Kd (GTP-binding protein 4)	Kd [4]	SMILES
> 30 µM (inactive)	> 30 µM (inactive)	> 30 µM (inactive)	> 30 µM (inactive)	> 30 µM (inactive)	COc1ccc(-c2ccc3c(N4CCOC[C@@H]4C)nc(N4CCOC[C@@H]4C)nc3n2)cc1CO [AZD-8055]
> 30 µM (inactive)	–	> 30 µM (inactive)	–	> 30 µM (inactive)	C[C@@H](Nc1cc(F)cc(F)c1)c1cc(C(=O)N(C)C)cc2c(=O)cc(N3CCOCC3)oc12 [AZD-8186]
> 30 µM (inactive)	> 30 µM (inactive)	–	> 30 µM (inactive)	> 30 µM (inactive)	Cc1ccc(NC(=O)c2ccc(CN3CC[C@H](N(C)C)C3)c(C(F)(F)F)c2)cc1Nc1nccc(-c2cncnc2)n1 [BAFETINIB]
> 30 µM (inactive)	> 30 µM (inactive)	> 30 µM (inactive)	> 30 µM (inactive)	> 30 µM (inactive)	CCS(=O)(=O)N1CC(CC#N)(n2cc(-c3ncnc4[nH]ccc34)cn2)C1 [BARICITINIB]
> 30 µM (inactive)	> 30 µM (inactive)	> 30 µM (inactive)	> 30 µM (inactive)	> 30 µM (inactive)	Cc1cc2c(F)c(Oc3ncnn4cc(OC[C@@H](C)OC(=O)[C@H](C)N)c(C)c34)ccc2[nH]1 [BRIVANIB ALANINATE]
> 30 µM (inactive)	> 30 µM (inactive)	–	> 30 µM (inactive)	> 30 µM (inactive)	CNC(=O)c1ccc(-c2cnc3ncc(Cc4ccc5ncccc5c4)n3n2)cc1F [CAPMATINIB]
> 30 µM (inactive)	> 30 µM (inactive)	> 30 µM (inactive)	–	> 30 µM (inactive)	CCn1c(-c2nonc2N)nc2c(C#CC(C)(C)O)ncc(OC[C@H]3CCCNC3)c21 [GSK-690693]
> 30 µM (inactive)	–	> 30 µM (inactive)	> 30 µM (inactive)	> 30 µM (inactive)	O=C1NC(=O)/C(=C/c2ccc3nccc(-c4ccncc4)c3c2)S1 [GSK-1059615]
> 30 µM (inactive)	–	> 30 µM (inactive)	> 30 µM (inactive)	> 30 µM (inactive)	Cn1cc(-c2ccc3nnc(C(F)(F)c4ccc5ncccc5c4)n3n2)cn1 [JNJ-38877605]
> 30 µM (inactive)	–	> 30 µM (inactive)	> 30 µM (inactive)	> 30 µM (inactive)	Cc1c(F)cc(C(=O)NC2CC2)cc1-c1ccc(C(=O)NCC(C)(C)C)cn1 [LOSMAPIMOD]
> 30 µM (inactive)	–	> 30 µM (inactive)	> 30 µM (inactive)	> 30 µM (inactive)	Cn1cc(-c2ccc(F)c(C(F)(F)F)c2)nc1C1CCN(c2ncnc3[nH]ncc23)CC1 [LY-2584702]
> 30 µM (inactive)	–	> 30 µM (inactive)	> 30 µM (inactive)	–	C1=C/COCc2cc(ccc2OCCN2CCCC2)Nc2nccc(n2)-c2cccc(c2)COC/1 [PACRITINIB]
> 30 µM (inactive)	–	> 30 µM (inactive)	> 30 µM (inactive)	–	CNC(=O)c1ccc(C)c(-n2c(C)cc(OCc3ccc(F)cc3F)c(Br)c2=O)c1 [PH-797804]
> 30 µM (inactive)	> 30 µM (inactive)	> 30 µM (inactive)	–	> 30 µM (inactive)	CCn1c(=O)c(-c2cc[nH]n2)cc2c(C)nc(N)nc21 [VOXTALISIB]

Further lines, the molecule ahead of its results:

SMILES	Kd [1]	Kd [2]	Kd [3]	Kd (GTP-binding protein 4)	Kd [4]
N[C@@H]1CCCN(c2c(/C=C3\SC(=O)NC3=O)cccc2-c2ccccc2)C1	> 30 µM (inactive)	> 30 µM (inactive)	> 30 µM (inactive)	> 30 µM (inactive)	> 30 µM (inactive)
Cc1ccc(S(=O)(=O)Nc2nc3ccccc3nc2Nc2ccc3nsnc3c2)cc1	> 30 µM (inactive)	> 30 µM (inactive)	> 30 µM (inactive)	> 30 µM (inactive)	> 30 µM (inactive)
CN1CC[C@@H](c2c(O)cc(O)c3c(=O)cc(-c4ccccc4Cl)oc23)[C@@H]1CO	> 30 µM (inactive)	> 30 µM (inactive)	> 30 µM (inactive)	> 30 µM (inactive)	> 30 µM (inactive)
Cc1cc(-c2cc(O)ccc2Cl)cc2nnc(Nc3ccc(OCCN4CCCC4)cc3)nc12	> 30 µM (inactive)	> 30 µM (inactive)	> 30 µM (inactive)	> 30 µM (inactive)	> 30 µM (inactive)
CCN1CCN(Cc2ccc(-c3cc4c(N[C@H](C)c5ccccc5)ncnc4[nH]3)cc2)CC1 [AEE-788]	> 30 µM (inactive)	> 30 µM (inactive)	> 30 µM (inactive)	> 30 µM (inactive)	> 30 µM (inactive)
Cn1ncc(Cl)c1-c1cc(C(=O)N[C@H](CN)Cc2cccc(F)c2)sc1Cl [AFURESERTIB]	> 30 µM (inactive)	–	> 30 µM (inactive)	> 30 µM (inactive)	–
COc1cc(N2CCC(N3CCN(C)CC3)CC2)ccc1Nc1ncnc(Nc2ccccc2S(=O)(=O)C(C)C)n1 [ASP-3026]	> 30 µM (inactive)	–	> 30 µM (inactive)	0.009 µM	> 30 µM (inactive)
CNS(=O)(=O)Nc1nccc(Cc2c(C)c3ccc(Oc4ncccn4)cc3oc2=O)c1F [AVUTOMETINIB]	> 30 µM (inactive)	> 30 µM (inactive)	> 30 µM (inactive)	> 30 µM (inactive)	> 30 µM (inactive)
COc1cc(CCc2cc(NC(=O)c3ccc(N4C[C@@H](C)N[C@@H](C)C4)cc3)n[nH]2)cc(OC)c1 [AZD-4547]	> 30 µM (inactive)	> 30 µM (inactive)	> 30 µM (inactive)	> 30 µM (inactive)	–
Cc1cc([C@@H](C)Nc2ccccc2C(=O)O)c2nc(N3CCOCC3)cc(=O)n2c1 [AZD-6482]	> 30 µM (inactive)	> 30 µM (inactive)	> 30 µM (inactive)	> 30 µM (inactive)	> 30 µM (inactive)
O=C(c1ccc(F)c(F)c1Nc1ccc(I)cc1F)N1CC(O)([C@@H]2CCCCN2)C1 [COBIMETINIB]	> 30 µM (inactive)	> 30 µM (inactive)	> 30 µM (inactive)	> 30 µM (inactive)	> 30 µM (inactive)
COC(=O)[C@@]1(O)C[C@H]2O[C@]1(C)n1c3ccccc3c3c4c(c5c6ccccc6n2c5c31)C(=O)NC4 [K-252A]	> 30 µM (inactive)	–	> 30 µM (inactive)	> 30 µM (inactive)	> 30 µM (inactive)
C=CC(=O)N1CCC(Oc2cc3c(Nc4ccc(Cl)c(Cl)c4F)ncnc3cc2OC)CC1 [POZIOTINIB]	> 30 µM (inactive)	–	> 30 µM (inactive)	> 30 µM (inactive)	> 30 µM (inactive)
